# According to patent US20050215589A1, “Inhibitors of 5-HT2A receptor” (priority 2003, published 2005):
# Experiments:
# [1] = biological target: T1, 5-HT2C (Homo sapiens, UniProt P28335); assay: Radioligand displacement binding (3H-LSD); design: expressed in transfected cells; host or cells: CHO or HEK293; conditions: recombinant human receptor in CHO or HEK293; tracer 3H-LSD
# T1 sequence (P28335 33-458): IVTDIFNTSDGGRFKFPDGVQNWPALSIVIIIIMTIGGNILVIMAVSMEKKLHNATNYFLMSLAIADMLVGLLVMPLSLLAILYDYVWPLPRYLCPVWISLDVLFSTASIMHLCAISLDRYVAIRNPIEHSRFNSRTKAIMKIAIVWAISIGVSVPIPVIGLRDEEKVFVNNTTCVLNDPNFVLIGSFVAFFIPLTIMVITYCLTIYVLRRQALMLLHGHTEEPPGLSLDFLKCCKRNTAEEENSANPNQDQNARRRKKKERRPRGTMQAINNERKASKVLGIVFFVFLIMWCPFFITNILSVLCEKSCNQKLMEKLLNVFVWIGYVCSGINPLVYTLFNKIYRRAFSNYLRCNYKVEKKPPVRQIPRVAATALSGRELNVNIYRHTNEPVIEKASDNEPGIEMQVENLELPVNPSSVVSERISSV
# Protocol: (§1) The affinity constants of compounds were determined using recombinant human serotonin receptors stably expressed in fibroblast cell lines (CHO or HEK293), measuring the ability of the compounds to displace radio-labelled tracers using scintillation proximity assays or filter binding assays. For 5-HT1B, 5-HT2B and 5-HT2C receptor binding studies ^3H-LSD was used as radio ligand, for 5-HT2A and 5-HT6 ^3H-5-HT was used as tracer, while the binding constant to 5-HT1A was determined using ^3H-8-OH-DPAT. The non-selective serotonin receptor antagonist mianserine was used as reference substance.
# (§2) The calculation of the Ki values for the inhibitors was performed by use of Activity Base. The Ki value is calculated from IC50 using the Cheng Prushoff equation (with reversible inhibition that follows the Michaelis-Menten equation): […] [Cheng, Y. C.; Prushoff, W. H. Biochem. Pharmacol. 1973, 22, 3099-3108].
# [2] = biological target: T2, 5-HT1A (Homo sapiens, UniProt P08908); assay: Radioligand displacement binding (3H-8-OH-DPAT); conditions: recombinant human receptor in CHO or HEK293; tracer 3H-8-OH-DPAT
# T2 construct: expressed in transfected cells; host or cells: CHO or HEK293
# T2 sequence (P08908 1-422): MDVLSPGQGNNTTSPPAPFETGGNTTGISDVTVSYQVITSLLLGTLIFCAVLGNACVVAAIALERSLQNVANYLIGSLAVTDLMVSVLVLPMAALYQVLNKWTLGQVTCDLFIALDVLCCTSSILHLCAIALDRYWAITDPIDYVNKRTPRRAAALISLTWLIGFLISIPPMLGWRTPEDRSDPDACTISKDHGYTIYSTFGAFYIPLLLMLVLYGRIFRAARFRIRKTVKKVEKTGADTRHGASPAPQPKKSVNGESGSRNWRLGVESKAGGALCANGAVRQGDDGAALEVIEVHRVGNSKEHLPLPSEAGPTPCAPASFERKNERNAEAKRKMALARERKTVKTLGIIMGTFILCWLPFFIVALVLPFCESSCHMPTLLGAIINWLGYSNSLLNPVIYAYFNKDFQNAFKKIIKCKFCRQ
# Protocol: as §1, §2
# [3] = biological target: T1, 5-HT2C; assay: FLIPR based assay, effect on 10 nM 5-HT induced Ca2+-currents; format: cell-based; conditions: FLIPR functional assays
# Protocol: The activity at 5-HT2C receptors was studied in a FLIPR based assay, measuring the effect of compounds on 10 nM 5-HT induced_Ca^2+-currents.
# [4] = biological target: T3, 5-HT2A (Homo sapiens, UniProt P28223); assay: FLIPR functional assay, inhibition of the 5-HT-evoked peak response (primary screening and IC50 determination); format: cell-based; design: expressed in transfected cells; host or cells: CHO; conditions: CHO cells expressing 5-HT2A, 15 min pre-incubation, Ki calculated from IC50 (Cheng-Prusoff)
# T3 sequence (P28223 whole entry): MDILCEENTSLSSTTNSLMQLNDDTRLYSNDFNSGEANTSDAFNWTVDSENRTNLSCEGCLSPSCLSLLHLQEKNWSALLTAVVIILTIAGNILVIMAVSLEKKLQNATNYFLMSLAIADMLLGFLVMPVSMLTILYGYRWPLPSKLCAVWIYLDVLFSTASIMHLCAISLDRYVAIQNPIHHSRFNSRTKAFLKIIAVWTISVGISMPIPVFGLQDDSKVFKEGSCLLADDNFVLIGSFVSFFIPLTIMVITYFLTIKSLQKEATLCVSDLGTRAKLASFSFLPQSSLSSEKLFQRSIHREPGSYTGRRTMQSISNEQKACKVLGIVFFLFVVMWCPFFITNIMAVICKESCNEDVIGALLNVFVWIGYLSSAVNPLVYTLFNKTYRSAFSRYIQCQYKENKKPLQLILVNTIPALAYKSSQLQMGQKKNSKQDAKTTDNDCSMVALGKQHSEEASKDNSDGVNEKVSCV
# Protocol: CHO cells expressing 5-HT2A receptors seeded in 384 well plates are pre-loaded with Fluo-4AM fluorescent dye and then incubated with compound (10 μM for primary screen) for 15 min. Fluorescent intensity is recorded using a Fluorometric imaging plate reader (FLIPR384, Molecular Devices) and inhibition of the peak response evoked by 5-HT (EC70 concentration) is calculated.
# IC50 determinations are performed utilizing the same functional assay as described for primary screening (15 min antagonist compound pre-incubation), applying the compounds in the dose range of 3 nM to 10 μM.
# as §2
# [5] = biological target: T4, 5-HT6 (Homo sapiens, UniProt P50406); assay: Radioligand displacement binding (3H-5-HT); conditions: recombinant human receptor in CHO or HEK293; tracer 3H-5-HT
# T4 construct: expressed in transfected cells; host or cells: CHO or HEK293
# T4 sequence (P50406 whole entry): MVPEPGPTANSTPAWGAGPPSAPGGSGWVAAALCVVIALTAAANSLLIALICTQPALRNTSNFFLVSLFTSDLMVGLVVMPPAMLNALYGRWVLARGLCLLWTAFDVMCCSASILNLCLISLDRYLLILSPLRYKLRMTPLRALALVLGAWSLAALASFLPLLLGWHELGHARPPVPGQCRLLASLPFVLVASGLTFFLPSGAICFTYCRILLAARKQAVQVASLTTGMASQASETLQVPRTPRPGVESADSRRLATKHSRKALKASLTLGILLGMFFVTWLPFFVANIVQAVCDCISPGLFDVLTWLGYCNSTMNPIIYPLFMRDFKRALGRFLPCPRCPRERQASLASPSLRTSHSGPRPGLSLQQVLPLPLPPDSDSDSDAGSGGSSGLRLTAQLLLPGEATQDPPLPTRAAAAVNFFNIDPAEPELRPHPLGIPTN
# Protocol: as §1, §2
# [6] = biological target: T3, 5-HT2A; assay: Radioligand displacement binding (3H-5-HT); design: expressed in transfected cells; host or cells: CHO or HEK293
# Protocol: as §1, §2
# [7] = biological target: T5, 5-HT1B (Homo sapiens, UniProt P28222); assay: Radioligand displacement binding (3H-LSD); conditions: recombinant human receptor in CHO or HEK293; tracer 3H-LSD
# T5 construct: expressed in transfected cells; host or cells: CHO or HEK293
# T5 sequence (P28222 whole entry): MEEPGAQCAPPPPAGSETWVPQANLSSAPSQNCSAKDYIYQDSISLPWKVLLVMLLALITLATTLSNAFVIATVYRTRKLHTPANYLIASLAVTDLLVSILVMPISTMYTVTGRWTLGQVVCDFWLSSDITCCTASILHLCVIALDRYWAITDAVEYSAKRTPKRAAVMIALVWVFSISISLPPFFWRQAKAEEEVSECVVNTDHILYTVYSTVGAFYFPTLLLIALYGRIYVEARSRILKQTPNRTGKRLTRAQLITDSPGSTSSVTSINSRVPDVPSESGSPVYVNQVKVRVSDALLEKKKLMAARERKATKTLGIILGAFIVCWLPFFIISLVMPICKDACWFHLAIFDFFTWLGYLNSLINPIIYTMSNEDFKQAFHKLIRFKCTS
# Protocol: as §1, §2
# [8] = biological target: T6, 5-HT2B (Homo sapiens, UniProt P41595); assay: Radioligand displacement binding (3H-LSD); conditions: recombinant human receptor in CHO or HEK293; tracer 3H-LSD
# T6 construct: expressed in transfected cells; host or cells: CHO or HEK293
# T6 sequence (P41595 whole entry): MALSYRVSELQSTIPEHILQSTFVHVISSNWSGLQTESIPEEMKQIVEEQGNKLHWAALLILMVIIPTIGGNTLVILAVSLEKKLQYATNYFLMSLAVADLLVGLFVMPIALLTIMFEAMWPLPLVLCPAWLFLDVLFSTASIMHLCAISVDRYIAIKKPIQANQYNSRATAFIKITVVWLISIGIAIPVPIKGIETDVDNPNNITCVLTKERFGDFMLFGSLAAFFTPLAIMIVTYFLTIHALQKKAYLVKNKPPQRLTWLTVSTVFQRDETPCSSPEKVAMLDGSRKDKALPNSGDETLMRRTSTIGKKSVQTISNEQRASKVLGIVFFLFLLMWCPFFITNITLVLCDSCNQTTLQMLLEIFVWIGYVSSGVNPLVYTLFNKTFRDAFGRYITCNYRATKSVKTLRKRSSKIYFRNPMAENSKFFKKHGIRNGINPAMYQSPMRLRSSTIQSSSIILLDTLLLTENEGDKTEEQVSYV
# Protocol: as §1, §2
smiles,measurement,setting,value
"COc1cccc(OC)c1OCCN1CCC(C(=O)NC(=O)Nc2cccc(C(F)(F)F)c2)CC1 [Example 2, 1-[2-(2,6-dimethoxyphenoxy)ethyl]-N-({[3-(trifluoromethyl)phenyl]amino}carbonyl)piperidine-4-carboxamide]",Ki,[1],> 1000 nM
same,Ki,[2],> 1000 nM
same,Selectivity at 5-HT2A versus the 5-HT2C receptor in terms of efficacy,[3],selective
same,Ki,[4],32.3 nM
same,Ki,[5],> 1000 nM
same,"Selectivity over five other serotonin receptors (5-HT2C, 5-HT2B, 5-HT1A, 5-HT6 and 5-HT1B)","[6]; binding, 5-HT2A versus the other receptors",highly selective
same,"Affinity for the 5-HT2A receptor subtype (Ki, in words)",[6]; equilibrium displacement binding,in the nanomolar range
same,Ki,"[6]; recombinant human receptor in CHO or HEK293, tracer 3H-5-HT",23 nM
same,Ki,[7],> 1000 nM
same,Ki,[8],> 1000 nM
